Measurements taken from patent publication US20190015505A1, “Method of Mediating Cardiovascular Hypertrophy and Perivascular Fibrosis Induced by Angiotensin II” (UNIVERSITY OF MACAU, priority 2017, published 2019).

Experiments:
[1] = system: VSMCs stimulated with AngII; test: Pro-fibrotic response: extracellular collagen content (Sirius Red kit) in VSMCs stimulated with AngII; type: cell-based; conditions: rat VSMCs, 100 nM AngII 48 hours; JG26 1 ̂mol/L, erlotinib 1 ̂mol/L, PBA 10 mmol/L pretreated 30 min; adenovirus 100 m.o.i.
Method: (§1) VSMCs were prepared from thoracic aortas of male Sprague-Dawley rats by the explant method as described previously^21. VSMCs were subcultured in DMEM containing 10% fetal bovine serum, penicillin and streptomycin. Cells from passage 3 to 10 at 80˜90% confluence were made quiescent by incubation with serum-free medium for 2-3 days.
To evaluate pro-fibrotic response, serum-starved VSMCs were stimulated with 100 nM AngII for 48 hours and extracellular cellular collagen content was quantified by Sirius Red collagen quantification kit (Chondrex) according to the manufacture's protocol. Recombinant adenoviral vector encoding rat ADAM17 siRNA was created and specificity and efficiency has been reported^11. VSMCs were infected with 100 m.o.i. adenovirus prior to the AngII stimulation as reported previously^11. ADAM17 selective inhibitor compound #21 (JG26)^8 was generated as reported. VSMCs were pretreated
with 1 ̂mol/L JG26 or vehicle (0.1% DMSO in final) for 30 min prior to the AngII stimulation. 4-phenylbutyrate (PBA) was obtained from Scandinavian Formulas and solubilized in DMEM. VSMCs were pretreated with 10 mmol/L PBA for 30 min.
Erlotinib (OSI Pharmaceuticals) was obtained from Genentech. VSMCs were pretreated with 1 ̂mol/L erlotinib for 30 min.
To test for the role of ADAM17 in AngII-induced vascular fibrosis, extracellular collagen content was evaluated in VSMCs stimulated with AngII. Adenovirus encoding ADAM17 siRNA^11 attenuated the AngII-induced enhancement in collagen content (FIG. 4A and 4B). Treatment of VSMCs with ADAM17 antibody A9B8, a highly-selective ADAM17 inhibitor JG26/compound 21^22, an EGFR kinase inhibitor erlotinib or a chemical ER chaperone PBA also attenuated AngII-induced enhancement in collagen content (FIG. 4C). As shown with the ADAM17 siRNA^11, A9B8 as well as JG26 inhibited AngII-induced EGFR transactivation assessed with an auto-phosphorylation site antibody (FIG. 4D).

EGFR = test: AngII-induced EGFR transactivation in VSMCs, immunoblotting with auto-phosphorylation site antibody; type: cell-based; conditions: rat VSMCs, 100 nM AngII, auto-phosphorylation site antibody (Tyr1068)
Method: as §1
Immunoblotting (IB) was performed as previously described^21. Quiescent VSMCs grown on 6-well plates were stimulated with 100 nM AngII (Sigma) for specified durations. The reaction was terminated by the replacement of medium with 100 ̂L of 1xSDS lysis buffer. 40 ̂L of the cell lysates were subjected to SDS-PAGE gel electrophoresis and electrophoretically transferred to a nitrocellulose membrane. The membranes were then exposed to primary antibodies overnight at 4° C. After incubation with the peroxidase linked secondary antibody for 1 h at room temperature, immunoreactive proteins were visualized using a chemiluminescence reaction kit. […]
To test for the role of ADAM17 in AngII-induced vascular fibrosis, extracellular collagen content was evaluated in VSMCs stimulated with AngII. […] As shown with the ADAM17 siRNA^11, A9B8 as well as JG26 inhibited AngII-induced EGFR transactivation assessed with an auto-phosphorylation site antibody (FIG. 4D).

Molecule	AngII-induced enhancement in collagen content [1]	AngII-induced EGFR transactivation (EGFR)
4-phenylbutyrate [PBA]	attenuated	
NC(=O)NCCC[C@@H](NS(=O)(=O)c1ccc(OCc2cc(Br)cc(Br)c2)cc1)C(=O)NO [JG26, reference compound]	attenuated	inhibited
C#Cc1cccc(Nc2ncnc3cc(OCCOC)c(OCCOC)cc23)c1 [erlotinib, Erlotinib]	attenuated	
